PubChem BioAssay (NCI)
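GI50: concentration for 50% inhibition of growth. TGI is the concentration that stops growth completely.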

How the values were obtained:
Assay in all cases: NCI anticancer screen, dose series, 384-well format
HL-60(TB) leukemia = system: HL-60(TB) leukemia
K-562 leukemia = system: K-562 leukemia
MOLT-4 leukemia = system: MOLT-4 leukemia
SF-295 CNS = system: SF-295 CNS
MDA-MB-468 breast = system: MDA-MB-468 breast
NCI-H522 lung = system: NCI-H522 lung
HOP-62 NSCLC = system: HOP-62 NSCLC
MCF7 breast = system: MCF7 breast
OVCAR-3 ovarian = system: OVCAR-3 ovarian
M14 melanoma = system: M14 melanoma
MALME-3M melanoma = system: MALME-3M melanoma
HS 578T breast = system: HS 578T breast
COLO 205 colon = system: COLO 205 colon
KM12 colon = system: KM12 colon
OVCAR-4 ovarian = system: OVCAR-4 ovarian
HT29 colon = system: HT29 colon
SF-268 CNS = system: SF-268 CNS
UACC-257 melanoma = system: UACC-257 melanoma
UACC-62 melanoma = system: UACC-62 melanoma
RPMI-8226 leukemia = system: RPMI-8226 leukemia
SNB-19 CNS = system: SNB-19 CNS
T-47D breast = system: T-47D breast
NCI-H322M lung = system: NCI-H322M lung
LOX IMVI melanoma = system: LOX IMVI melanoma
A498 renal = system: A498 renal
HCT-116 colon = system: HCT-116 colon
CCRF-CEM leukemia = system: CCRF-CEM leukemia
EKVX NSCLC = system: EKVX NSCLC
IGROV1 ovarian = system: IGROV1 ovarian

## CN(C)CCCOc1ccc(-c2ccc3ncc4c(c3c2)n(C2CCOCC2)c(=O)n4C)cn1
HL-60(TB) leukemia
  GI50: 2950 nM
  TGI: 11 µM
K-562 leukemia
  GI50: 7.55 µM
  TGI: 30.6 µM
MOLT-4 leukemia
  GI50: 1390 nM
  TGI: 4.71 µM
SF-295 CNS
  GI50: 2950 nM
  TGI: > 100 µM
MDA-MB-468 breast
  GI50: 2470 nM
  TGI: 19.9 µM
NCI-H522 lung
  GI50: 3.48 µM
  TGI: > 100 µM
HOP-62 NSCLC
  GI50: 3.81 µM
  TGI: > 100 µM
MCF7 breast
  GI50: 1910 nM
  TGI: > 100 µM
OVCAR-3 ovarian
  GI50: 1690 nM
  TGI: 4.86 µM
M14 melanoma
  GI50: 3.32 µM
  TGI: > 100 µM
MALME-3M melanoma
  GI50: 1240 nM
  TGI: 6.1 µM
HS 578T breast
  GI50: 1470 nM
  TGI: 4.14 µM
COLO 205 colon
  GI50: 2170 nM
  TGI: 13.5 µM
KM12 colon
  GI50: 2670 nM
  TGI: 26 µM
OVCAR-4 ovarian
  GI50: 7.94 µM
  TGI: > 100 µM
HT29 colon
  GI50: 4.36 µM
  TGI: 27.8 µM
SF-268 CNS
  GI50: 4.23 µM
  TGI: > 100 µM
UACC-257 melanoma
  GI50: > 100 µM
  TGI: > 100 µM
UACC-62 melanoma
  GI50: 4.33 µM
  TGI: 23.3 µM
RPMI-8226 leukemia
  GI50: 738 nM
  TGI: 2390 nM
SNB-19 CNS
  GI50: 22.9 µM
  TGI: > 100 µM
T-47D breast
  GI50: 1220 nM
  TGI: 11.7 µM
NCI-H322M lung
  GI50: 3.21 µM
  TGI: 36.7 µM
LOX IMVI melanoma
  GI50: 2450 nM
  TGI: 14.5 µM
A498 renal
  GI50: 2540 nM
  TGI: > 100 µM
HCT-116 colon
  GI50: 6.44 µM
  TGI: 55.7 µM
CCRF-CEM leukemia
  GI50: 1950 nM
  TGI: 10 µM
EKVX NSCLC
  GI50: 2390 nM
  TGI: > 100 µM
IGROV1 ovarian
  GI50: 1170 nM
  TGI: 6.42 µM
